Reference: patent US4272528A, “Phosphonoacetyl aminoacids” (Abbott Laboratories, priority 1980, dated 1981)
Like-named read-outs stand apart in the source and are kept apart here.

Molecular target: herpes DNA polymerase (Human herpesvirus 1, UniProt P04293)
Test: herpes DNA polymerase activity assay
Format: biochemical
Conditions: for % Inhibition at Drug Level 1.666 μg/ml / % Inhibition at Drug Level 16.6 μg/ml / % Inhibition at Drug Level 166 μg/ml: fixed dilution
Method: The above compounds were tested for herpes DNA polymerase activity in the manner shown in Example 9 of U.S. Pat. No. 4,138,432. The assay, using fixed dilutions of the above compounds, produced the following results:
When variable solution concentrations were used, the results were as follows: […]

[1] = variable solution concentrations, read-out: ID50 (the source's name) (converted)

Chain of herpes DNA polymerase (P04293 whole entry): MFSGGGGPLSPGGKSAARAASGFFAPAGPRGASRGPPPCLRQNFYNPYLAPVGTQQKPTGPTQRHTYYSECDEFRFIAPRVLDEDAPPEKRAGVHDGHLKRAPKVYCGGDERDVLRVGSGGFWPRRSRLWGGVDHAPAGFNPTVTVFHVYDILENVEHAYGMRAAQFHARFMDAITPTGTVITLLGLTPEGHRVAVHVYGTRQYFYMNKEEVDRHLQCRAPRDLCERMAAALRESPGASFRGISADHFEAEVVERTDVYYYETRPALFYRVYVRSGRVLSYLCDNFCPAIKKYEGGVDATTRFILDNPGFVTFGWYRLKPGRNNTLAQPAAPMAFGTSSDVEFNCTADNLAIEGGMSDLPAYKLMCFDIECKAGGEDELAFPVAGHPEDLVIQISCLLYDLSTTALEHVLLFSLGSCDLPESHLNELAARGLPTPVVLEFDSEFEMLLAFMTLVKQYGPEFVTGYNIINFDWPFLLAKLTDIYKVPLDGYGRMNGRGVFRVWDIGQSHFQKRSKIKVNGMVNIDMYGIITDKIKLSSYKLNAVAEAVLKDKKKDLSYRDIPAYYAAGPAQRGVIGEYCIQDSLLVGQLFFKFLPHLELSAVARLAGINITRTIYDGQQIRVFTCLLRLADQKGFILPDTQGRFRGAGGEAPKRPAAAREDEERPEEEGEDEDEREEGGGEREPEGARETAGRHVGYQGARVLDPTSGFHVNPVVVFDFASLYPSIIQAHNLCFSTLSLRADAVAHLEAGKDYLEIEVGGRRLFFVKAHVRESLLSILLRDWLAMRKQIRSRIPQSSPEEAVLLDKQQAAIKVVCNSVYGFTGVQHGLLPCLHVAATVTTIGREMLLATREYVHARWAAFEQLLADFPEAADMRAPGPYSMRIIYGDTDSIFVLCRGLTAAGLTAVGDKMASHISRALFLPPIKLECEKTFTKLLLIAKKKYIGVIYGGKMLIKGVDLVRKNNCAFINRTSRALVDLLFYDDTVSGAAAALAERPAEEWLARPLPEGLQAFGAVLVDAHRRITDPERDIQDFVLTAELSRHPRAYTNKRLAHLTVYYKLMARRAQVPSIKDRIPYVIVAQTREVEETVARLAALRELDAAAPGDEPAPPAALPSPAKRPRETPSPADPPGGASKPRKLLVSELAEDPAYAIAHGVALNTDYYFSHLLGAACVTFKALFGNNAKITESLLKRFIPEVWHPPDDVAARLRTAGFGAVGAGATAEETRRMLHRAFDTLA

SMILES | IC50 [1] | % Inhibition at Drug Level 1.666 μg/ml | % Inhibition at Drug Level 16.6 μg/ml | % Inhibition at Drug Level 166 μg/ml | IC50
O=C(O)C[C@H](NC(=O)CP(=O)(O)O)C(=O)O [PAA-L-Asp, reference compound] | 141 µM | – | – | – | –
O=C(O)CP(=O)(O)O [PAA-Na, reference compound] | – | 82% | 98% | 99% | –
C[C@H](NC(=O)CP(=O)(O)O)C(=O)O [Example 2 (L), PAA-L-Ala] | – | – | – | 59% | –
O=C(O)CNC(=O)CP(=O)(O)O [Example 1, PAA-Gly] | – | 33% | 56% | 72% | 28.9 µM
O=C(O)CC(NC(=O)CNC(=O)CP(=O)(O)O)C(=O)O (stereo not shown) [Example 4, PAA-Gly-Asp] | 10.6 µM | 39% | 77% | 93% | –
C[C@@H](NC(=O)CP(=O)(O)O)C(=O)O [Example 2 (D), PAA-D-Ala] | – | 19% | 68% | 87% | 31.3 µM
N=C(N)NCCCC(NC(=O)CP(=O)(O)O)C(=O)O (stereo not shown) [PAA-Arg, reference compound] | 203 µM | – | – | – | –
O=C(O)CCNC(=O)CP(=O)(O)O [Example 3, PAA-β-Ala] | – | 15% | 59% | 88% | 50.2 µM
